As usually defined, the melting point is the temperature of the solid-liquid transition.

Take `CC12CC(N3CCOCC3)C(O)CC1CCC1C2CCC2(C)C(C(=O)CCl)CCC12` (stereo unspecified): the melting point is 181 °C.

Molecule `Cc1cncn1-c1cc(C(=O)O)cc(C(F)(F)F)c1` displayed a melting point of 243 to 245 °C.

Regarding `COc1ccc2c(c1)c(=O)oc1c(C(C)=O)c(O)ccc12`, the melting point is 197 to 199 °C.

`CNC(=S)Nc1cc(OC)c(-c2ccc(C[C@H](NC(=O)c3c(Cl)cccc3Cl)C(=O)O)cc2)c(OC)c1` returned a melting point of 197 to 198 °C.

Take `COC(=O)C1=C(C)Nc2ccccc2NC1c1cccc(Cl)c1Cl` (stereo unspecified): the melting point lay within 181 to 182 °C.

Take `COc1ccc(-c2oncc2CO)cc1OC`: the melting point lay within 83 to 84 °C.

On to `CCOC(=O)NN=Cc1cn(-c2ccccc2)nc1-c1ccc([N+](=O)[O-])o1`, for which the melting point is 200 to 201 °C.

Consider `CS(=O)CCNC(=O)c1cccc(-c2ccc3c(c2)C(c2cc(Cl)ccc2Cl)CC3)c1` (stereo unspecified), for which the melting point was 136 to 138 °C.

Consider `COC(=O)c1cc2c(cc(C=O)c3ccccc32)s1`, for which the melting point is 196 to 198 °C.

Molecule `CCOC(=O)C1=C(CCl)NC(C)=C(C(=O)OC)C1c1cccc([N+](=O)[O-])c1` (stereo unspecified) gave a melting point of 119 to 120 °C.

For the molecule `CCOP(=O)(OCC)Oc1c(Br)c(C)nc(C)c1-c1ccc(Oc2ccc(OC(F)(F)F)cc2)cc1`, the melting point was 80 to 81 °C.

`COc1ccc(Cl)cc1C(=O)NCc1ccc(CC(=O)O)cc1` yielded a melting point of 140 to 141 °C.

`CCC(=O)N=C(NC(=O)OC)Nc1cc(Oc2ccccc2)ccc1NC(C)=O` registered a melting point of 161 to 163 °C.

Consider `O=C(O)Cc1cc(=O)oc2cc(O)ccc12`, for which the melting point worked out at 210 °C.

`C=COCCN1C(=O)CN(C)C1=O` came in with a melting point of 54 to 56 °C.

`Cn1ncc(N2CCCCC2)c(-c2ccccc2C=O)c1=O` returned a melting point of 134 to 135 °C.

As for `COc1ccc(C(=O)Cc2cccc(C(F)(F)F)c2)cc1`, the melting point is 94 to 95 °C.

Regarding `COc1cc(COc2nn(C)cc2C(=O)O)ccc1OCc1nc(-c2ccccc2)oc1C`, the melting point lay within 169 to 170 °C.

`N#CCCNC(=O)c1n[nH]cc1NC(=O)c1cccs1` registered a melting point of 226 to 227 °C.

`COC(=O)CC(C)N=c1sc2ccccc2s1` (stereo unspecified) showed a melting point of 78 to 80 °C.

For the molecule `CCOC(=O)NC(=O)P(=O)(OCC)OCC`, the melting point was in the range of 57 to 64 °C.

`CCOC(=O)C1=C(C)NC(CO)=C(C(=O)OCC)C1c1cccc([N+](=O)[O-])c1` (stereo unspecified) displayed a melting point of 141 to 142 °C.

Molecule `Cc1c(-c2ccccc2)nc2n1C(C)(C)Cc1ccccc1C2OC1CCN(C)CC1` (stereo unspecified) had a melting point of 152 °C.

Consider `CCC(C)C(=O)Nc1c(C(O)(C(F)(F)F)C(F)(F)F)ccc2ccccc12` (stereo unspecified), for which the melting point lay within 167 to 168 °C.

In turn, `Cc1nc2c(-c3cccc(N4CCN(C)CC4)c3)cnn2c(N)c1-c1ccc(F)c(Cl)c1` yielded a melting point of 224 to 226 °C.

Consider `CCCCc1nc(C(=O)CCC)c(C#N)[nH]1`, for which the melting point lay in the range of 91 to 92 °C.

`CC(=O)N1CCC(NC(=O)Nc2cccc(F)c2)CC1` registered a melting point of 112 to 114 °C.

As for `O=C(O)c1csc(-c2ccc(OCC(F)(F)C(F)F)cc2)n1`, the melting point fell in the range of 170 to 173 °C.

In the case of `CC1(C)NC(=O)N(c2ccc(Cl)c(C(F)(F)F)c2)C1=N`, the melting point was in the range of 148 to 149 °C.

In turn, `COc1cc2nc(N3CCN(C)CC3)n3ncnc3c2cc1OC` came in with a melting point of 194 to 196 °C.

Molecule `CC1(C)C(C=C(F)C(=O)O)C1C(=O)OCc1ccccc1` (stereo unspecified) yielded a melting point of 88 °C.

`O=C1CCCN1c1c([N+](=O)[O-])cc(C(F)(F)F)c(Cl)c1[N+](=O)[O-]` had a melting point of 121 to 122 °C.

Molecule `O=c1ccc(C2(O)CCCCC2)c[nH]1` gave a melting point of 194 to 196 °C.

Molecule `NC(=O)c1ccc2c(c1)C(=O)N1CCC[C@H]1CO2` gave a melting point of 287 to 290 °C.

As for `OC1CSC(Oc2cc(-c3cncnc3)cnc2F)C(O)C1O` (stereo unspecified), the melting point fell in the range of 204 to 205 °C.

For the molecule `CONC(=O)Nc1ccc(-c2sc3c(c2CCl)c(=O)n(-c2ccccc2)c(=O)n3Cc2c(F)cccc2F)cc1`, the melting point was in the range of 217 to 219 °C.

`O=C1c2cccc(O)c2C(=O)c2ccsc21` displayed a melting point of 199 to 200 °C.

Take `O=C1c2c(Cl)cccc2-n2cnc(CO)c2C2CCCN12` (stereo unspecified): the melting point lay within 303 to 305 °C.

`O=C1Nc2c(cc(F)c(F)c2F)C1=O` gave a melting point of 193 to 194 °C.

For `Cc1cc(NCCOC(=O)c2ccccc2)c2[nH]ncc2n1`, the melting point was in the range of 136 to 138 °C.

In the case of `C1=Nc2ccccc2N2CCCc3cccc1c32`, the melting point fell in the range of 118 to 120 °C.

For `COc1ccc(-c2cc(Cl)c3ccccc3n2)cc1Cl`, the melting point lay in the range of 113 to 116 °C.

`CCOC(=O)c1cc2c(OC)cc3c(c2n1Cc1ccccc1)CCCC3` showed a melting point of 86 to 88 °C.

`O=c1[nH]c2ncc(-c3cccnc3)nc2n1CC1CCCCC1` registered a melting point of 205 °C.

As for `O=C(Nc1c[nH]nc1C(=O)NCCO)c1ccccn1`, the melting point fell in the range of 155 to 156 °C.

`CCn1nccc1NC(=O)c1ccc(OC)c2oc(COC)cc12` came in with a melting point of 97 to 99 °C.

The molecule `CCCNc1cccc(-c2ccc(C(=O)O)c(=O)[nH]2)c1` returned a melting point of 251 to 254 °C.

For `CCCCc1cnc(-c2ccc(N)cc2)nc1`, the melting point is 154 to 156 °C.

In the case of `CCOc1ccc2c(c1)C(C)(c1ccccc1Cl)C(=O)N2S(=O)(=O)c1ccc(C(=O)O)cc1` (stereo unspecified), the melting point came to 174 °C.

As for `COc1cc2ccc(COC(C)=O)cc2cc1OC`, the melting point fell in the range of 71 to 75 °C.

Consider `O=S1(=O)CC2C(C1)N(CCO)CCN2CCO` (stereo unspecified), for which the melting point lay in the range of 145 to 147 °C.

Consider `Cn1nnnc1-c1cn(C)c2cc(OC(F)F)ccc2c1=O`, for which the melting point is 225 to 228 °C.

With `O=C(Nc1ccc(C(F)(F)F)cc1)C(=O)N1CCC(Cc2ccc(F)cc2)CC1`, the melting point fell in the range of 109 to 111 °C.

In turn, `CCn1ncc2nc(C(N)=O)c(-c3ccccc3)nc21` gave a melting point of 189 to 190 °C.

With `Cc1cc(=O)n(-c2ccc(Cl)cc2F)c(=O)n1C`, the melting point amounted to 145 °C.

Molecule `CC(C)(C)OC(=O)N1CCCN(c2ncnc3ccccc23)CC1` displayed a melting point of 55 to 59 °C.

Take `Cc1cc2c(c(C)c1S(=O)(=O)C[N+](=O)[O-])CCCC(C)(C)O2`: the melting point fell in the range of 100 to 101 °C.

`Cc1cn(C2=CCC(O)CC2)c(=O)[nH]c1=O` (racemic) yielded a melting point of 223 °C.

In turn, `CCNC(=O)c1ccc(N2CCN(Cc3ccc4c(c3)NC(=O)C(C)O4)CC2)c(Cl)c1` (stereo unspecified) had a melting point of 239 to 243 °C.

`OC(CN1CCN(C(c2ccccc2)c2ccccc2)CC1)c1ccc(OCc2ccccc2)cc1` (stereo unspecified) gave a melting point of 129 °C.

For the molecule `CNn1c(C)nn(C(=O)NC(C)(C)CCl)c1=O`, the melting point was determined as 93 °C.

Molecule `Cc1nsc(NC(=O)Cc2ccc(O)c(N)c2)c1Cl` came in with a melting point of 239 to 243 °C.

`Cc1ccc2ccc(C#N)cc2c1` registered a melting point of 134 to 136 °C.

`CCCCCNc1nc(C)c(C(=O)c2ccc(N)c([N+](=O)[O-])c2)s1` displayed a melting point of 165 to 169 °C.

With `Cc1cccc(C)c1NC(=O)CN1CCCC1=O`, the melting point lay within 153 to 154 °C.

`CSc1cnc(OCCOc2ncnc(NS(=O)(=O)c3ccc(C(C)(C)C)cc3)c2-c2ccc(C(=O)O)cc2)nc1` displayed a melting point of 226 to 227 °C.

The molecule `COc1ccc(N2CCc3c(C)nc4c(OC)cccc4c32)c(C)c1` had a melting point of 163 to 167 °C.

`CC1C(=O)Oc2cc(N3CCOCC3)c(Br)cc21` (stereo unspecified) had a melting point of 99 to 100 °C.

Take `CCOC(=O)Cn1nc2ccc(OCCCN3CCC(OC(c4ccccc4)c4ccccc4)CC3)nn2c1=O`: the melting point lay within 124 to 125 °C.

Take `CN(C)C(=O)[C@@H]1CCCN1C(=O)OCc1ccccc1`: the melting point was in the range of 66 to 67 °C.

On to `O=C(Nc1ccc2c(c1)nc1n2CCC1)c1cc2cc(C(F)(F)F)cnc2n1Cc1ccccc1`, for which the melting point fell in the range of 268 to 270 °C.

The molecule `Cc1ccc(OCC=C(Cl)Cl)c(Cl)c1O` displayed a melting point of 70 °C.

Molecule `CS(=O)(=O)c1ccc(N2CCC(=O)CC2)cc1` yielded a melting point of 183 to 185 °C.

As for `CC(=O)N1CCC(N2C(=O)CN=C(c3ccccc3)c3ccccc32)CC1`, the melting point fell in the range of 208 to 209 °C.

In turn, `CC(=O)Nc1cc(F)cc2c1OCCC21SC(=O)NC1=O` (stereo unspecified) showed a melting point of 278 to 280 °C.

With `CC(NC(=O)CCl)(c1ccccc1)c1ccccc1`, the melting point is 73 to 74 °C.

In turn, `CN(C(=O)CN(C(=O)CNC(=O)Nc1cccc(C#N)c1)c1ccccc1)c1ccccc1` returned a melting point of 204 °C.

Consider `Cc1ccc2c(=O)n(CCCN3CC=C(c4ccc(Cl)cc4)CC3)c(=O)[nH]c2c1`, for which the melting point lay within 199 to 201 °C.

For the molecule `COc1ccc2c(c1)C1(CCN(CCCC(=O)c3ccc(F)cc3)C1)CC2O` (stereo unspecified), the melting point was 163 to 165 °C.

`CC(C)(C)c1ccc(N2CCCN(c3cc[nH]c(=S)c3C#N)CC2)cc1` registered a melting point of 257 to 258 °C.

`Cc1nccn1-c1nc(-c2ccc(Cl)cc2)c(CCCO)o1` showed a melting point of 128 to 129 °C.

As for `C=C(OCCc1nc(C(C)C)c(Sc2cc(Cl)cc(Cl)c2)n1C)C12CC3CC(CC(C3)C1)C2`, the melting point was 114 to 116 °C.

As for `CCOc1ccc2c(c1)n(C1CCCC1)c(=O)n2Cc1ccc(NC(=O)N(CC)CC)cc1OC`, the melting point amounted to 140 °C.

With `O=C(O)CCc1nn(-c2ccc(F)cc2)c2c1CCCC2`, the melting point lay in the range of 128 to 129 °C.

On to `CCOC(=O)c1cn(Cc2ccccc2)nc1OCc1ccccc1`, for which the melting point is 71 to 72 °C.

Take `CC(CO)Nc1c(F)cc2c(=O)c(C(=O)O)cn(-c3cc(N)c(F)cc3F)c2c1Cl` (stereo unspecified): the melting point fell in the range of 153 to 158 °C.

The molecule `CCOCc1nc2c(N)nc3ccccc3c2n1CC1(C(N)=O)CCCCC1` registered a melting point of 221 to 223 °C.

Molecule `CCN1CCc2c([nH]c3ccccc23)C1CNC(=O)OCc1ccccc1` (stereo unspecified) returned a melting point of 92 to 94 °C.

Take `O=c1ccoc2c(CCCc3ccccc3)c(OCc3ccccc3)ccc12`: the melting point was 106 to 108 °C.

Molecule `Cc1cc(F)ccc1-c1nc(NCCNC(=O)Nc2cccc(F)c2)nc2c1ccc(=O)n2-c1c(F)cccc1F` displayed a melting point of 131 to 144 °C.

Turning to `N#Cc1ccc(N2CCC(F)(F)C2)c2ccccc12`, the melting point lay in the range of 68 to 69 °C.
